Measured values as given in the supplement of paper PMC4862054.

Experiments:
Test in all cases: normalised response (% of control), CellTiter-Glo; higher = more viable cells (100 = DMSO, 0 = benzethonium chloride kill control)
Conditions in all cases: incubation time: 72 h
CAL-148 = system: CAL-148
Description: (§1)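 DSRT, 72 h incubation, CellTox Green / CellTiter-Glo readout. Signal is normalised to DMSO and benzethonium chloride controls. Value is the normalised response at the highest dose.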

CAL-51 = system: CAL-51
Description: as §1

DU-4475 = system: DU-4475
Description: as §1

HCC1599 = system: HCC1599
Description: as §1

HDQ-P1 = system: HDQ-P1
Description: as §1

MCF-10A = system: MCF-10A
Description: as §1

MDA-MB-231 = system: MDA-MB-231
Description: as §1

MDA-MB-436 = system: MDA-MB-436
Description: as §1

MDA-MB-453 = system: MDA-MB-453
Description: as §1

MDA-MB-468 = system: MDA-MB-468
Description: as §1

MFM-223 = system: MFM-223
Description: as §1

Row | Compound | normalised response (CAL-148) | normalised response (CAL-51) | normalised response (DU-4475) | normalised response (HCC1599) | normalised response (HDQ-P1) | normalised response (MCF-10A) | normalised response (MDA-MB-231) | normalised response (MDA-MB-436) | normalised response (MDA-MB-453) | normalised response (MDA-MB-468) | normalised response (MFM-223)
1 | COc1ccc(-c2cc3c(C)nc(N)nc3n([C@H]3CC[C@H](OCCO)CC3)c2=O)cn1 (10000 nM) | 4.36% | 0.68% | 0.26% | 44% | 10.8% | 7.97% | 9.59% | 37.1% | 3.84% | 4.65% | 13%
2 | COc1cc(CCc2cc(NC(=O)c3ccc(N4CC(C)NC(C)C4)cc3)n[nH]2)cc(OC)c1 (stereo not given) [AZD4547] (1000 nM) | 93% | 108% | 94% | 80.9% | 93.7% | 74.9% | 103% | 98% | 85% | 104% | 53.3%
3 | CCC/C=C/C=C/C(=O)O[C@H]1/C(=C/C(=O)OC)C[C@H]2C[C@H]([C@@H](C)O)OC(=O)C[C@H](O)C[C@@H]3C[C@H](OC(C)=O)C(C)(C)[C@](O)(C[C@@H]4C/C(=C/C(=O)OC)C[C@H](/C=C/C(C)(C)[C@]1(O)O2)O4)O3 [Bryostatin 1] (100 nM) | 107% | 96.5% | 97.4% | 86.4% | 81.5% | 95.7% | 93.1% | 111% | 103% | 98.3% | 104%
4 | CO[C@@H](C(=O)N1Cc2[nH]nc(NC(=O)c3ccc(N4CCN(C)CC4)cc3)c2C1)c1ccccc1 [Danusertib] (10000 nM) | 94.9% | 31.1% | 37.3% | 78.5% | 44.2% | 17% | 42.7% | 57.5% | 95% | 50.1% | 45.6%
5 | Cc1nc(Nc2ncc(C(=O)Nc3c(C)cccc3Cl)s2)cc(N2CCN(CCO)CC2)n1 [Dasatinib] (1000 nM) | 103% | 47.9% | 95.5% | 97.7% | 27.1% | 24.3% | 34.1% | 91.9% | 80.5% | 73.1% | 80.9%
6 | Cc1c(CN2CCN(C(=O)[C@H](C)O)CC2)sc2c(N3CCOCC3)nc(-c3cnc(N)nc3)nc12 [GDC-0980] (10000 nM) | 10% | 8.48% | 15.7% | 66.2% | 10.6% | 17.8% | 34.3% | 43.1% | 9.21% | 17.8% | 26.2%
7 | Nc1cccc2c1CN(C1CCC(=O)NC1=O)C2=O (stereo not given) [Lenalidomide] (10000 nM) | 104% | 114% | 99.3% | 103% | 93.6% | 102% | 103% | 91.3% | 102% | 107% | 100%
8 | C[C@]12O[C@H](C[C@]1(O)CO)n1c3ccccc3c3c4c(c5c6ccccc6n2c5c31)CNC4=O [Lestaurtinib] (1000 nM) | 99.6% | 91.1% | 5.65% | 24.3% | 61.6% | 28.5% | 54.5% | 44.7% | 79% | 35.6% | 46.4%
9 | O=C1c2c(O)ccc(O)c2C(=O)c2c(NCCNCCO)ccc(NCCNCCO)c21 [Mitoxantrone] (1000 nM) | 40.4% | 49% | 49.5% | 85.2% | 85% | 74.2% | 82.9% | 40.4% | 129% | 59.4% | 100%
10 | Nc1ccccc1NC(=O)c1ccc(CNc2nccc(-c3cccnc3)n2)cc1 [Mocetinostat] (10000 nM) | 12.2% | 18.3% | 4.3% | 17.1% | 38.2% | 54.1% | 21.7% | 31.8% | 9.77% | 5.88% | 36.7%
11 | COc1nc(N)nc2c1ncn2[C@@H]1O[C@H](CO)[C@@H](O)[C@@H]1O [Nelarabine] (10000 nM) | 78.7% | 143% | 97.8% | 117% | 91.6% | 86.2% | 94.3% | 90.1% | 81.3% | 87.1% | 89.5%
12 | Cc1ccc(Nc2nccc(N(C)c3ccc4c(C)n(C)nc4c3)n2)cc1S(N)(=O)=O [Pazopanib] (10000 nM) | 106% | 67.5% | 104% | 94.9% | 98.1% | 102% | 102% | 106% | 91.8% | 83.3% | 55.8%
13 | O=C(CCBr)N1CCN(C(=O)CCBr)CC1 [Pipobroman] (10000 nM) | 101% | 86.5% | 101% | 99% | 107% | 104% | 101% | 95% | 110% | 100% | 103%
14 | C[C@]12C=CC(=O)C=C1CC[C@@H]1[C@@H]2[C@@H](O)C[C@@]2(C)[C@H]1CC[C@]2(O)C(=O)CO [Prednisolone] (10000 nM) | 111% | 88.8% | 104% | 102% | 84.7% | 96.4% | 151% | 104% | 94.9% | 113% | 101%
15 | CNC(=O)c1cc(Oc2ccc(NC(=O)Nc3ccc(Cl)c(C(F)(F)F)c3)cc2)ccn1 [Sorafenib] (1000 nM) | 113% | 146% | 98.3% | 94.1% | 99.3% | 118% | 108% | 120% | 92.4% | 112% | 78.6%
